According to patent US6686181B1, “Method for the production of L-amino acids from their racemic N-aceytyl-D, L-derivatives by enzymatic racemate cleavage by means of isolated recombinant enzymes” (Aventis Corporation GmbH, priority 1999, dated 2004):

Test system: deac1 protein
Test: Substrate specificity and stereoselectivity of the purified deac1 enzyme (free amino acid formed, amino acid analyzer)
Type: biochemical, Stenotrophomonas sp.
Conditions: 25 mM substrate, 1 h; for cleavage of substrate by the deac1 enzyme (in words): 37° C.; for Rel. activity: 5 μg purified enzyme, pH 7.5, 37° C., specific activity with hippuric acid set equal to 100%
Method: For the investigation of substrate specificity and stereospecificity of the deac1 protein, 5 μg each of purified enzyme were incubated in 20 μl batches in 10 mM NaCl, 10 mM Na phosphate, pH=7.5 with 25 mM each of the N-acetyl-L-amino acids or of the corresponding D enantiomers mentioned in Table 1. For comparison, hippuric acid (N-benzoylglycine), the natural substrate of deacetylase, was employed. […] Table 1 indicates the relative deacetylase activities for the L-enantiomers of the various substrates.

| SMILES | cleavage of substrate by the deac1 enzyme (in words) | Rel. activity |
| --- | --- | --- |
| O=C(O)CNC(=O)c1ccccc1 [Hippuric acid (N-benzoylglycine), N-benzoylglycine, reference compound] | cleaves | – |
| CC(=O)N[C@@H](CCC(=O)O)C(=O)O [N-Ac-L-glutamic acid] | cleaves | – |
| CC(=O)N[C@@H](CCC(N)=O)C(=O)O [N-Ac-L-glutamine] | cleaves | – |
| CC(=O)N[C@@H](Cc1c[nH]cn1)C(=O)O [N-Ac-L-histidine] | cleaves | – |
| CC(=O)N[C@@H](CC(C)C)C(=O)O [N-Ac-L-leucine] | cleaves | – |
| CSCC[C@H](NC(C)=O)C(=O)O [N-Ac-L-methionine] | – | 0% |
| CC(=O)N[C@@H](CCCN)C(=O)O [N-Ac-L-ornithine] | cleaves | – |
| CC(=O)N[C@@H](Cc1ccccc1)C(=O)O [N-Ac-L-phenylalanine] | cleaves | 24% |
| CC(=O)N[C@@H](CCP(C)(=O)O)C(=O)O [N-Ac-L-phosphinothricin] | cleaves | – |
| CC(=O)N1CCC[C@H]1C(=O)O [N-Ac-L-proline] | – | 0% |
| CC(=O)N[C@@H](CO)C(=O)O [N-Ac-L-serine] | – | 4% |
| CC(=O)N[C@@H](Cc1c[nH]c2ccccc12)C(=O)O [N-Ac-L-tryptophan] | – | 0.4% |
| CC(=O)NCC(=O)O [N-Ac-glycine] | cleaves | – |
